Data as given in patent US9316638B2, “Reagents for reducing leukocyte interference in immunoassays” (Abbott Point of Care Inc., priority 2010, dated 2016).

Experiments:
[1] = tested on: leukocytes; assay: BNP immunoassay signal slope (AmpActSlope) as indicator of leukocyte interference in enriched buffy blood samples (EBS); assay type: cell-based, human
Experimental: The experiments described below were performed on a BNP assay, specifically an i-STAT® BNP cartridge (Abbott Point of Care, Princeton, N.J., USA) or a partially modified version thereof.
As an experimental aid to understanding the affect of leukocytes on whole-blood immunoassays, it is desirable to create an enriched buffy (blood) sample (EBS). […] In the experiments described herein, the EBS constituted approximately a ten-fold increase in the buffy concentration, i.e. roughly 90% of the plasma and red cells were removed. The hematocrit value (Hct) of the sample was therefore maintained in the normal range, roughly 50-60%.
As a baseline indicator of leukocyte interference, a cut-off value of a signal rate of change above 0.05 nA per second, was used (see right side y-axis, AmpActSlope). […] In the first group the enzyme is anticipated to remove substantially all the oxygen and the co-reactant glucose is added in substantial excess. The second group relies on glucose already in the sample to react with the enzyme. The third group is a control with added glucose and no enzyme.
With respect to the first group (EBS+OX+Glu), the initial oxygen concentration of about 200 mm Hg falls to about 10 mm Hg after 50 minutes, and the glucose concentration drops from 700 to about 100 mg/dL over the same period. During this period immunoassays were run to determine the AmpActSlope value.
To further characterize these effects, a study was run on a larger sample donor pool (15 donors multiple runs), as shown in FIG. 27. FIG. 27 is a scatter plot where the desirable AmpActSlope value is less than 0.05 and greater than −0.03 nA per second. In addition, in this particular experiment a maximum desirable sensor threshold current (ParamActDoc) was also set at 8.0 nA. The desirable result was therefore to minimize samples falling into the five segments around the target zone.

[2] = glucose and oxygen concentrations in treated EBS samples (i-STAT CG8+ cartridges); assay type: biochemical, human; conditions: OX 4.0 IU per mL, Glu 700 mg/dL
Experimental: In the first group the enzyme is anticipated to remove substantially all the oxygen and the co-reactant glucose is added in substantial excess. The second group relies on glucose already in the sample to react with the enzyme. The third group is a control with added glucose and no enzyme.
Note that i-STAT® CG8+ cartridges (Abbott Point of Care, New Jersey, USA) were used to determine the glucose and oxygen concentrations.
The “Sample 2” set of data was obtained where the treatment occurs in a closed syringe to prevent any oxygen being introduced from ambient air. […] The “Sample 3” data reflects opening the syringe about 20 minutes after the initial runs to allow ambient air access. This sample was run at the 40 minute mark. […] The “Sample 1” data in FIG. 28A is a control EBS+Glu only.

[3] = From the text: While it is more common for a blood sample used in an immunoassay performed in a laboratory to be drawn from a vein, where point-of-care (or bedside, e.g. Emergency Room, Operating Room) testing is done, it is not uncommon for the sample to be drawn from an artery. […] To assess the impact of an arterial sample on the present assay, simulated arterial samples were generated and tested. […] Simulated samples were created with a tonometer using venous blood collected in an EDTA tube. The tonometer equilibrates the blood with a predetermined gas composition.
Note these samples were not enriched as described above.

glucose oxidase
assayed samples with AmpActSlope below 0.05 nA per second ([1]; EBS, OX 4.0 IU per mL, Glu 700 mg/dL, FIG. 26): 9 out of 13 | reduction in number of assays with slope above the desirable threshold ([1]; addition of glucose oxidase, in general): about 90% | difference in assays beyond threshold, treated vs untreated ([1]; treated 1.0% vs untreated 13.4%, FIG. 27): 92.1% | assays beyond threshold (AmpActSlope <0.05 and >-0.03 nA per second, ParamActDoc max 8.0 nA) ([1]; treated EBS+OX, N=287, 15 donors, FIG. 27): 1.0% | glucose oxidase concentration in the sample found preferable ([1]; venous samples): > 3 IU per mL | glucose concentration after treatment ([2]; OX+Glu from 700 after 50 minutes): below 20 mg/dL | oxygen concentration (PO2) after treatment ([2]; initial about 200 mm Hg, OX+Glu value after 50 minutes): about 50 mm Hg | inhibition of phagocytosis in arterial blood ([3]; glucose oxidase 6.0 IU and 12.0 IU per mL): sufficient to inhibit phagocytosis | partial pressure of oxygen in the sample ([3]; simulated arterial blood, initial PO2 about 150 mm Hg, glucose oxidase 6.0 IU and 12.0 IU per mL): below 50 mm Hg | change in glucose and PO2 ([3]; tonometered whole blood, glucose oxidase 6 and 12 IU per mL, no added glucose): decreased glucose and PO2
